# According to article PMC8540265, “Activity of New Synthetic (2-Chloroethylthio)-1,4-naphthoquinones in Prostate Cancer Cells” (Pharmaceuticals, 2021):
# Like-named read-outs stand apart in the source and are kept apart here.
# Tests used:
# 22Rv1 cells [1] = assay: MTT cytotoxicity test, 22Rv1 cells; format: cell-based, human
# Description: (§1) A total of 6000 cells/well were seeded in 96-well plates, incubated overnight, and treated with the drugs in 100 μL/well of the corresponding fresh culture media for 48 h, as previously described. For combinational assays, the cells were pre-treated with the corresponding inhibitor for the indicated time and then co-treated with the tested compounds for 48 h. Then, 10 μL/well of MTT ((3-(4,5-dimethylthiazol-2-yl)-2,5-diphenyltetrazolium bromide) solution was added and the cell viability was measured as previously reported.
# PNT2 cells = assay: MTT cytotoxicity test, PNT2 cells; format: cell-based, human
# Description: as §1
# 22Rv1 cells [2] = test system: 22Rv1 cells
# 22Rv1 cells [3] = format: cell-based, human
# PC-3 cells = format: cell-based, human
# [4] = Homo sapiens, PNT2, 48 h, MTT, non-cancer prostate cells
compound,measurement,setting,value
"COc1ccc2c(c1O)C(=O)C(O)=C(C)C2=O [Compound 11, ancistroquinone B]",IC50,"22Rv1 cells [1]; Homo sapiens, 22Rv1, 48 h, MTT",> 100 µM
same,IC50,PNT2 cells; [4],> 100 µM
"O=C1C(O)=C(CSCCCl)C(=O)c2c(O)c(Cl)c(Cl)c(O)c21 [Compound 37, 6,7-Dichloro-2-((2-chloroethylthio)methyl)-3,5,8-trihydroxy-1,4-naphthoquinone]",IC50,22Rv1 cells [1],48.6 ± 12.2 µM
same,Selectivity Index [IC50(PNT2)/IC50(22Rv1)],22Rv1 cells [1],0.58
same,IC50,PNT2 cells,28.2 ± 1.04 µM
"COc1cc2c(c(OC)c1OC)C(=O)C(CSCCCl)=C(O)C2=O [Compound 34, 3-((2-Chloroethylthio)methyl)-2-hydroxy-5,6,7-trimethoxy-1,4-naphthoquinone]",IC50,22Rv1 cells [1],> 100 µM
same,IC50,PNT2 cells,> 100 µM
2-[2-(3-chlorophenyl)hydrazinylyidene]propanedinitrile [CCCP],effect on mitochondrial membrane potential (ΔΨm),22Rv1 cells [2],provoked mitochondrial membrane depolarization
"COc1cc(O)c2c(c1O)C(=O)C(O)=C(CSCCCl)C2=O [Compound 38, 2-((2-Chloroethylthio)methyl)-3,5,8-trihydroxy-6-methoxy-1,4-naphthoquinone]",IC50,22Rv1 cells [1],> 100 µM
same,IC50,PNT2 cells,> 100 µM
"COc1ccc(C[C@H]2NC[C@H](O)[C@H]2OC(C)=O)cc1 [Aniso, anisomycin]",effect of pre-treatment with pan-caspase inhibitor zVAD on induced apoptosis,22Rv1 cells [3],Comparable effects
CC(=O)O[C@@H]1O[C@H](CSC2=CC(=O)c3c(O)c(C)c(C)c(O)c3C2=O)[C@@H](OC(C)=O)[C@H](OC(C)=O)[C@H]1OC(C)=O [SAB-1],increase in activity in PC-3 cells on introduction of the 2-chloroethylthio group,PC-3 cells,5 fold
"CC1=C(O)C(=O)c2c(ccc(O)c2O)C1=O [Compound 12, dioncoquinone B]",IC50,"22Rv1 cells [1]; Homo sapiens, 22Rv1, 48 h, MTT",89.5 ± 24.9 µM
same,IC50,PNT2 cells; [4],> 100 µM
